Test results as given in article PMC9135679 (Cell Reports, 2022).

How the values were obtained:
[1] = target: DQ5 (HLA-DQA1*01:01/DQB1*05:01) (Homo sapiens, UniProt P01909+P01920, A157S/A45G/A70V/C70R/D89V/E106S/E118A/E183D/E77G/F83G/G63E/H151Q/H199R/H252R/H253Q/I129T/I235V/I88M/INS77G/K197Q/L107V/L117V/L119Y/L178F/L71W/L74F/L85Q/L91A/L98M/M46L/N214S/P87R/Q116E/Q256R/Q57E/Q76K/R102G/R240Q/R75S/R78G/S102Y/S185I/S41F/S97I/T103A/T109R/T121G/T122I/T172A/T86R/V148I/V68A/V73E/Y34C/Y58G/Y62H); experiment: Fluorescence polarization competition peptide binding assay, DQ5; conditions: Figure 5E, described in words
[2] = system: PBMC from COVID-19, vaccinated, seronegative and pre-pandemic donors; experiment: IFN-γ ELISpot, ex vivo PBMC; type: cell-based, human; conditions: of 10 convalescent COVID-19 donors analyzed
[3] = system: in vitro expanded T cell lines; experiment: IFN-γ ELISpot, T cells expanded in vitro with peptides or peptide pools; type: cell-based, human; conditions: HCoV S pool-expanded lines from 3 convalescent COVID-19 donors; pool deconvolution; 1 μg/mL per peptide; positive by DFR2X
[4] = system: T cell clones with partially HLA-matched APCs (LG2, 9068, MN605); experiment: T cell clone stimulation, IFN-γ ELISA; type: cell-based, human; conditions: for dose-dependent reactivity relative to the SARS-CoV-2 peptide: 10-fold dilution series 1-10^−4 μg/mL, 24 hours

**Q.** How did the “binding of homolog peptides to DQ5 relative to S811–831” value [1] turn out when RVAGRSAIEDILFSKLV [229E-115] was run?
**A.** The value was “substantially weaker binding”.

**Q.** What does the source list for “S986–1,006: SARS-CoV-2 spike candidate epitope, overlapping peptides 198/199”?
**A.** donors showing ex vivo responses [2]: 1 donors; donors recognizing the pair of overlapping peptides [3]: single

**Q.** SALEDLLFSKVVTSGLG [NL63-146] was tested. Which “binding of homolog peptides to DQ5 relative to S811–831” value [1] did it give?
**A.** Its value is “substantially weaker binding”.

**Q.** What about the “dose-dependent reactivity relative to the SARS-CoV-2 peptide” value ([4]; […]) of the same substance?
**A.** The value was “approximately 10 fold weaker”.

**Q.** With SSSRSFFEDLLFDKVKL [HKU1-151] as the substance, how does the “binding of homolog peptides to DQ5 relative to S811–831” value [1] read?
**A.** Its value is “binds more strongly than SARS-CoV-2”.

**Q.** What about the “dose-dependent reactivity compared with S811–826” value ([4]; clone #49, cyan group (DQ5, CoV2/HKU1)) of the same substance?
**A.** Its value is “similar”.

**Q.** And the “dose-dependent reactivity relative to the SARS-CoV-2 peptide” value ([4]; clone #120, gold group (DP4, CoV2/HKU1))?
**A.** Its value is “approximately 10 fold weaker”.
